Test results published in ChEMBL document CHEMBL3046048, “Design and synthesis of new 2,4,5-triarylimidazole derivatives as selective cyclooxygenase (COX-2) inhibitors” (Med Chem Res, 2012).

What follows are molecules tested against T1, Prostaglandin G/H synthase 1 (Ovis aries, UniProt P05979) (assay: Inhibition of Ovis aries (sheep) COX1 using arachidonic acid as substrate using cyclic naphthalene hydrazide by chemiluminescence assay).
T1 sequence (P05979 whole entry): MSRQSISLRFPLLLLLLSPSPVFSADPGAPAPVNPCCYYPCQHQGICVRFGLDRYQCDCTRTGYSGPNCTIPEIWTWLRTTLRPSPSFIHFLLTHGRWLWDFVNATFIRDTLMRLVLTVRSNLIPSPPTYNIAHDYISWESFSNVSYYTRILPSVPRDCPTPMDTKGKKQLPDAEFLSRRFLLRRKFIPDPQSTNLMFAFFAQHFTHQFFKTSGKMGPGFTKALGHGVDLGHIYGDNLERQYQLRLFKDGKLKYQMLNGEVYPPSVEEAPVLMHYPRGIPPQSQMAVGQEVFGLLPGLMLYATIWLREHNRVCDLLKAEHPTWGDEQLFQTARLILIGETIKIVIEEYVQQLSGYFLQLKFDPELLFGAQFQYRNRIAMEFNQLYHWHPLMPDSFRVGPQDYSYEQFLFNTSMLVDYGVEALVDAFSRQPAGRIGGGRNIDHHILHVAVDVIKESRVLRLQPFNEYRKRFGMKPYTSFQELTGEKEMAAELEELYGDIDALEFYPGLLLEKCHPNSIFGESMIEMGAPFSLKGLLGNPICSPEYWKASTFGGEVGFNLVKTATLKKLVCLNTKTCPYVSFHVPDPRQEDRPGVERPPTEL

Row | IC50 [µM] | Compound
1 | 10.1 | CS(=O)(=O)c1ccc(-c2nc(-c3ccc(Cl)cc3)[nH]c2-c2ccccc2)cc1
2 | 11.3 | CS(=O)(=O)c1ccc(-c2nc(-c3ccc(O)cc3)[nH]c2-c2ccccc2)cc1
3 | 10.6 | COc1ccc(-c2nc(-c3ccc(S(C)(=O)=O)cc3)c(-c3ccccc3)[nH]2)cc1
4 | 9.9 | CS(=O)(=O)c1ccc(-c2nc(-c3ccccc3)[nH]c2-c2ccccc2)cc1
5 | 10.4 | CC(=O)Nc1ccc(-c2nc(-c3ccc(S(C)(=O)=O)cc3)c(-c3ccccc3)[nH]2)cc1
6 | 11.1 | CS(=O)(=O)c1ccc(-c2nc(-c3ccc(F)cc3)[nH]c2-c2ccccc2)cc1
7 | 10.4 | Cc1ccc(-c2nc(-c3ccc(S(C)(=O)=O)cc3)c(-c3ccccc3)[nH]2)cc1
